Reference: ChEMBL document CHEMBL6153076, “Discovery of novel JQ1 derivatives as dual ferroptosis and apoptosis inducers for the treatment of triple-negative breast cancer” (Eur J Med Chem, 2025)
Active and inactive are the calls of the source. The rule behind the calls is not given here.

How the values were obtained:
MDA-MB-231 [1] = assay: Downregulation of HO-1 expression in human MDA-MB-231 cells at 0.2 to 5 uM; format: functional, cell-based; conditions: dose 0.2-5 µM
MDA-MB-231 [2] = assay: Downregulation of FSP1 expression in human MDA-MB-231 cells; format: functional, cell-based; conditions: dose 0.2-5 µM
MDA-MB-231 [3] = assay: Induction of apoptosis in human MDA-MB-231 cells assessed as late apoptotic cells at 0.2 uM incubated for 48 hrs by Annexin V/PI staining based flow cytometry analysis (reference value: 0.14%); format: functional
MDA-MB-231 [4] = assay: Induction of cell cycle arrest in human MDA-MB-231 cells assessed as accumulation of cells at G2/M phase at 1 uM incubated for 48 hrs by propidium iodide staining flow cytometric analysis (reference value: 8.69%); format: functional
MDA-MB-231 [5] = assay: Induction of cell cycle arrest in human MDA-MB-231 cells assessed as accumulation of cells at G2/M phase at 0.2 uM incubated for 48 hrs by propidium iodide staining flow cytometric analysis (reference value: 8.69%); format: functional
MDA-MB-231 [6] = assay: Induction of apoptosis in human MDA-MB-231 cells assessed as necrotic cells at 1 uM incubated for 48 hrs by Annexin V/PI staining based flow cytometry analysis (reference value: 0.03%); format: functional
MDA-MB-231 [7] = assay: Induction of cell cycle arrest in human MDA-MB-231 cells assessed as accumulation of cells at S phase at 0.2 uM incubated for 48 hrs by propidium iodide staining flow cytometric analysis (reference value: 26.75%); format: functional
MDA-MB-231 [8] = assay: Induction of ferroptosis in human MDA-MB-231 cells assessed as decrease in GSH level incubated for 48 hrs; format: functional, cell-based; conditions: dose 0.2-5 µM
MDA-MB-231 [9] = assay: Induction of apoptosis in human MDA-MB-231 cells assessed as viable cells at 5 uM incubated for 48 hrs by Annexin V/PI staining based flow cytometry analysis (reference value: 97.85%); format: functional; conditions: read-out: Activity
MDA-MB-231 [10] = assay: Induction of apoptosis in human MDA-MB-231 cells assessed as upregulation of Bax expression at 0.2 to 5 uM; format: functional, cell-based; conditions: dose 0.2-5 µM
MDA-MB-231 [11] = assay: Induction of apoptosis in human MDA-MB-231 cells assessed as early apoptotic cells at 0.2 uM incubated for 48 hrs by Annexin V/PI staining based flow cytometry analysis (reference value: 0.80%); format: functional
MDA-MB-231 [12] = assay: Antitumor activity against human MDA-MB-231 cells xenografted in nude mouse assessed as suppression of tumor growth at 50 mg/kg, ip administered daily for 21 days; format: functional, organism-based; conditions: time 21.0 day
MDA-MB-231 [13] = assay: Induction of ferroptosis in human MDA-MB-231 cells assessed as increase in intracellular MDA accumulation incubated for 48 hrs; format: functional, cell-based; conditions: dose 0.2-5 µM
MDA-MB-231 [14] = assay: Induction of apoptosis in human MDA-MB-231 cells assessed as necrotic cells at 0.2 uM incubated for 48 hrs by Annexin V/PI staining based flow cytometry analysis (reference value: 0.03%); format: functional
BT-549 = assay: cells; conditions: Homo sapiens, BT-549, 72 h
Description: Antiproliferative activity against human BT-549 cells assessed as inhibition of cell proliferation incubated for 72 hrs by MTT assay

MDA-MB-231 [15] = assay: Induction of cell cycle arrest in human MDA-MB-231 cells assessed as accumulation of cells at S phase at 5 uM incubated for 48 hrs by propidium iodide staining flow cytometric analysis (reference value: 26.75%); format: functional
MDA-MB-231 [16] = assay: Induction of apoptosis in human MDA-MB-231 cells assessed as late apoptotic cells at 5 uM incubated for 48 hrs by Annexin V/PI staining based flow cytometry analysis (reference value: 0.14%); format: functional
MDA-MB-231 [17] = assay: Induction of cell cycle arrest in human MDA-MB-231 cells assessed as accumulation of cells at G0/G1 phase at 1 uM incubated for 48 hrs by propidium iodide staining flow cytometric analysis (reference value: 64.56 %); format: functional
MDA-MB-231 [18] = assay: Induction of apoptosis in human MDA-MB-231 cells assessed as upregulation of C-myc expression at 0.2 to 5 uM; format: functional, cell-based; conditions: dose 0.2-5 µM
MDA-MB-231 [19] = assay: Downregulation of NRF2 expression in human MDA-MB-231 cells at 0.2 to 5 uM; format: functional, cell-based; conditions: dose 0.2-5 µM
MDA-MB-231 [20] = assay: Downregulation of BRD4 expression in human MDA-MB-231 cells by Western blot analysis; format: functional, cell-based; conditions: dose 0.2-5 µM
[21] = Cytotoxicity against human MCF-10A cells assessed as inhibition of cell proliferation incubated for 72 hrs by MTT assay; format: toxicity, cell-based
MDA-MB-231 [22] = assay: Anti-metastatic activity in human MDA-MB-231 cells assessed as inhibition of cell migration incubated for 24 hrs by inverted microscopic analysis; format: functional, cell-based; conditions: dose 0.2-5 µM
MDA-MB-231 [23] = assay: Induction of cell cycle arrest in human MDA-MB-231 cells assessed as accumulation of cells at G2/M phase at 5 uM incubated for 48 hrs by propidium iodide staining flow cytometric analysis (reference value: 8.69%); format: functional
MDA-MB-231 [24] = assay: Induction of apoptosis in human MDA-MB-231 cells assessed as necrotic cells at 5 uM incubated for 48 hrs by Annexin V/PI staining based flow cytometry analysis (reference value: 0.03%); format: functional
MDA-MB-231 [25] = assay: Downregulation of SLC7A11 expression in human MDA-MB-231 cells; format: functional, cell-based; conditions: dose 0.2-5 µM
MDA-MB-231 [26] = assay: Induction of apoptosis in human MDA-MB-231 cells assessed as late apoptotic cells at 1 uM incubated for 48 hrs by Annexin V/PI staining based flow cytometry analysis (reference value: 0.14%); format: functional
MDA-MB-231 [27] = assay: Downregulation of SLC3A2 expression in human MDA-MB-231 cells; format: functional, cell-based; conditions: dose 0.2-5 µM
MDA-MB-231 [28] = assay: Induction of apoptosis in human MDA-MB-231 cells assessed as […] expression at 0.2 to 5 uM; format: functional, cell-based; conditions: dose 0.2-5 µM
MDA-MB-231 [29] = assay: Induction of apoptosis in human MDA-MB-231 cells assessed as viable cells at 0.2 uM incubated for 48 hrs by Annexin V/PI staining based flow cytometry analysis (reference value: 97.85%); format: functional; conditions: read-out: Activity
MDA-MB-231 [30] = assay: cells; conditions: Homo sapiens, MDA-MB-231, 72 h
Description: Antiproliferative activity against human MDA-MB-231 cells assessed as inhibition of cell proliferation incubated for 72 hrs by MTT assay

MDA-MB-231 [31] = assay: Downregulation of FTH1 expression in human MDA-MB-231 cells; format: functional, cell-based; conditions: dose 0.2-5 µM
MDA-MB-231 [32] = assay: Induction of apoptosis in human MDA-MB-231 cells assessed as early apoptotic cells at 1 uM incubated for 48 hrs by Annexin V/PI staining based flow cytometry analysis (reference value: 0.80%); format: functional
MDA-MB-231 [33] = assay: Downregulation of GPX4 expression in human MDA-MB-231 cells by Western blot analysis; format: functional, cell-based; conditions: dose 0.2-5 µM
MDA-MB-231 [34] = assay: Induction of apoptosis in human MDA-MB-231 cells assessed as viable cells at 1 uM incubated for 48 hrs by Annexin V/PI staining based flow cytometry analysis (reference value: 97.85%); format: functional; conditions: read-out: Activity
MDA-MB-231 [35] = assay: Induction of apoptosis in human MDA-MB-231 cells assessed as early apoptotic cells at 5 uM incubated for 48 hrs by Annexin V/PI staining based flow cytometry analysis (reference value: 0.80%); format: functional
MDA-MB-231 [36] = assay: Induction of cell cycle arrest in human MDA-MB-231 cells assessed as accumulation of cells at S phase at 1 uM incubated for 48 hrs by propidium iodide staining flow cytometric analysis (reference value: 26.75%); format: functional
MDA-MB-231 [37] = assay: Induction of ferroptosis in human MDA-MB-231 cells assessed as increase in intracellular Fe2+ level at 0.2 to 5 uM incubated for 48 hrs by FerroOrange staining based flow cytometry analysis; format: functional, cell-based; conditions: dose 0.2-5 µM
MDA-MB-231 [38] = assay: Induction of cell cycle arrest in human MDA-MB-231 cells assessed as accumulation of cells at G0/G1 phase at 0.2 uM incubated for 48 hrs by propidium iodide staining flow cytometric analysis (reference value: 64.56 %); format: functional
MDA-MB-231 [39] = assay: Antitumor activity against human MDA-MB-231 cells xenografted in nude mouse assessed as tumor growth inhibition at 50 mg/kg, ip administered daily for 21 days; format: functional; conditions: MDA-MB-231, 504 h, time 21 day, read-out: TGI
[40] = Toxicity in nude mouse xenografted with human MDA-MB-231 cells at 50 mg/kg, ip administered daily for 21 days; format: organism-based; conditions: in vivo, 504 h, time 21 day
MDA-MB-231 [41] = assay: Induction of cell cycle arrest in human MDA-MB-231 cells assessed as accumulation of cells at G0/G1 phase at 5 uM incubated for 48 hrs by propidium iodide staining flow cytometric analysis (reference value: 64.56 %); format: functional
[42] = target: Bromodomain-containing protein 4 (Homo sapiens, UniProt O60885); assay: Inhibition of BRD4 (unknown origin) incubated for 120 mins by TR-FRET assay
MDA-MB-231 [43] = assay: Induction of ferroptosis in human MDA-MB-231 cells assessed as increase in intracellular LPO accumulation incubated for 48 hrs by confocal laser scanning microscopic analysis; format: functional, cell-based; conditions: dose 0.2-5 µM

With `Cc1sc2c(c1C)C(c1ccc(Cl)cc1)=N[C@@H](CC(=O)NC1CCN(C(=O)CCl)CC1)c1nnc(C)n1-2` the Activity (MDA-MB-231 [1]) was “Active”, the Activity (MDA-MB-231 [2]) was “Dose-dependent-effect” and the Activity (MDA-MB-231 [3]) was 5.14%. For the same molecule, the Activity (MDA-MB-231 [4]) was 15.47%, the Activity (MDA-MB-231 [5]) was 10.25% and the Activity (MDA-MB-231 [6]) was 1.44%. The Activity (MDA-MB-231 [7]) was 28.88%, the Activity (MDA-MB-231 [8]) was “Dose-dependent-effect” and the viability at 5 µM (MDA-MB-231 [9]) was 59.7%. The Activity (MDA-MB-231 [10]) was “Active”, the Activity (MDA-MB-231 [11]) was 6.1% and the Activity (MDA-MB-231 [12]) was “Active”. For the same molecule, the Activity (MDA-MB-231 [13]) was “Dose-dependent-effect”, the Activity (MDA-MB-231 [14]) was 0.68% and the IC50 (BT-549) was 0.52 µM. It also gave an Activity (MDA-MB-231 [15]) of 32.17%, an Activity (MDA-MB-231 [16]) of 21.27% and an Activity (MDA-MB-231 [17]) of 53.71%. The Activity (MDA-MB-231 [18]) was “Active”, the Activity (MDA-MB-231 [19]) was “Active” and the Activity (MDA-MB-231 [20]) was “Dose-dependent-effect”. For the same molecule, the IC50 at 72 h [21] was 2.56 µM, the Activity (MDA-MB-231 [22]) was “Dose-dependent-effect” and the Activity (MDA-MB-231 [23]) was 25.39%. The Activity (MDA-MB-231 [24]) was 0.7%, the Activity (MDA-MB-231 [25]) was “Dose-dependent-effect” and the Activity (MDA-MB-231 [26]) was 9.51%. For the same molecule, the Activity (MDA-MB-231 [27]) was “Dose-dependent-effect”, the Activity (MDA-MB-231 [28]) was “Active” and the viability at 0.2 µM (MDA-MB-231 [29]) was 88%. For the same molecule, the IC50 (MDA-MB-231 [30]) was 0.49 µM, the Activity (MDA-MB-231 [31]) was “Dose-dependent-effect” and the Activity (MDA-MB-231 [32]) was 16.51%. For the same molecule, the Activity (MDA-MB-231 [33]) was “Dose-dependent-effect”, the viability at 1 µM (MDA-MB-231 [34]) was 72.5% and the Activity (MDA-MB-231 [35]) was 18.2%. The Activity (MDA-MB-231 [36]) was 30.62%, the Activity (MDA-MB-231 [37]) was “Active” and the Activity (MDA-MB-231 [38]) was 60.87%. The inhibition in vivo at 50 mg/kg (MDA-MB-231 [39]) was 51.4%, the Activity [40] was “Non-toxic” and the Activity (MDA-MB-231 [41]) was 42.44%. The IC50 [42] was 0.331 µM and the Activity (MDA-MB-231 [43]) was “Dose-dependent-effect”.
